Test results as given in patent US10220034B2, “Hepatitis B viral assembly effectors” (Indiana University Research and Technology Corp., priority 2013, dated 2019).

How the values were obtained:
AD38 cells = experiment: Activity of test compounds on viral production from AD38 cells (qPCR viral load); assay type: cell-based, HBV; set-up: key: (+) depicting meets criteria for significant activity; (++) depicting exceeds criteria; conditions: 5 days, supernatant qPCR
Procedure: AD38 cells grown in a 175 cm flash with Growth Medium (DMEM/F12 (1:1) (cat#SH30023.01, Hyclone, 1× Pen/step (cat#: 30-002-CL, Mediatech, Inc), 10% FBS (cat#: 101, Tissue Culture Biologics), 250 μg/mL G418 (cat#: 30-234-CR, Mediatech, Inc), 1 μg/mL Tetracycline (cat#: T3325, Teknova)) were detached with 0.25% trypsin. Tetracycline-free treatment medium (15 mL DMEM/F12 (1:1) (cat#SH30023.01, Hyclone, 1× Pen/step (cat#: 30-002-CL, Mediatech, Inc), with 2% FBS, Tet-system approved (cat#: 631106, Clontech) were then added to mix and spun at 1300 rpm for 5 min. Pelleted cells were then re-suspended/washed with 50 mL of 1×PBS 2 times and 10 mL treatment medium one time. AD38 cells were then re-suspended with 10 mL of treatment medium and counted. Wells of a collagen coated 96-well NUNC microtiter plate were seeded at 50,000/well in 180 μL of treatment medium, and 20 μL of either 10% DMSO (Control) or a 10× solution of test compound in 10% DMSO in treatment media was added for as final compound concentration 1, 3, or 10 μM (1.0% final [DMSO]) and plates were incubated for 5 days at 37° C.
Subsequently viral load production was assayed by quantitative PCR of the core sequence. Briefly, 5 μL of clarified supernatant was added to a PCR reaction mixture that contained forward primers HBV-f 5′-[…]-3′, Reverse primers HBV-r 5′-[…]-3′ and Fluorescent TaqMan™ Probes HBV-probe 5′-FAM/[…]/ZEN/[…]/31ABkFQ-3′ in Quanta Biosciences PerfeCTa® qPCR Toughmix®, and was subsequently on an Applied Biosystems VIIA7 in a final volume of 20 μL. The PCR mixture was incubated at 45° C. for 5 minutes, then 95° C. for 10 min, followed by 40 cycles of 10 seconds at 95° C. and 20 seconds at 60° C. Viral load was quantitated against known standards by using ViiA™ 7 Software. Viral load in the supernatant from wells with treated cells were compared against viral load in supernatant from DMSO control wells (≥3 per plate). In Table 4, concentrations of test compound causing reductions in viral load greater than at least 3 standard deviations from the DMSO controls across all plates were considered active, with (+) depicting meets criteria for significant activity, and (++) depicting exceeds criteria.

HBV Cp = experiment: Capsid assembly assay (fluorescence quenching); conditions: 10 μM compound, control reactions with no drug show 25±5% assembly

SMILES: CNc1ccc(S(=O)(=O)N2CCN(c3nc(C)cc(Nc4ccc(C)cc4)n3)CC2)cc1 [compound 24]
- reduction in viral load vs DMSO controls (AD38 cells; test concentration 3 μM): ++
- reduction in viral load vs DMSO controls (AD38 cells; test concentration 10 μM): ++
- % Capsid formation at 24 h (10 μM) (HBV Cp): 96%

SMILES: COc1ccc(S(=O)(=O)N2CCN(c3nc(C)cc(Nc4ccc(OC(F)(F)F)cc4)n3)CC2)cc1 [compound 36]
- % Capsid formation at 24 h (10 μM) (HBV Cp): 78%

SMILES: COc1ccc(Nc2cc(C)nc(N3CCN(S(=O)(=O)c4ccc(OC)cc4)CC3)n2)cc1 [compound 43]
- % Capsid formation at 24 h (10 μM) (HBV Cp): 97%

SMILES: Cc1ccc(Nc2cc(C)nc(N3CCN(S(=O)(=O)c4ccc5cc(N(C)C)ccc5c4)CC3)n2)cc1 [compound 19]
- % Capsid formation at 24 h (10 μM) (HBV Cp): 83%

SMILES: COc1ccc(S(=O)(=O)N2CCN(c3nc(C)cc(Nc4ccccc4)n3)CC2)cc1 [compound 39]
- % Capsid formation at 24 h (10 μM) (HBV Cp): 56%

SMILES: COc1ccc(Nc2cc(C)nc(N3CCN(S(=O)(=O)c4ccc(OC)cc4)CC3)n2)cc1 [compound 41]
- % Capsid formation at 24 h (10 μM) (HBV Cp): 84%

SMILES: Cc1ccc(Nc2cc(C)nc(N3CCN(S(=O)(=O)c4ccc(C(C)C)cc4)CC3)n2)cc1 [compound 6]
- reduction in viral load vs DMSO controls (AD38 cells; test concentration 3 μM): ++
- reduction in viral load vs DMSO controls (AD38 cells; test concentration 10 μM): ++
- % Capsid formation at 24 h (10 μM) (HBV Cp): 92%

SMILES: Cc1ccc(Nc2cc(C)nc(N3CCN(S(=O)(=O)c4ccc(OC(F)F)cc4)CC3)n2)cc1 [compound 28]
- reduction in viral load vs DMSO controls (AD38 cells; test concentration 1 μM): ++
- reduction in viral load vs DMSO controls (AD38 cells; test concentration 3 μM): ++
- reduction in viral load vs DMSO controls (AD38 cells; test concentration 10 μM): ++
- % Capsid formation at 24 h (10 μM) (HBV Cp): 96%

SMILES: COc1ccc(S(=O)(=O)N2CCN(c3nc(C)cc(Nc4ccc(C)cc4)n3)CC2)cc1OC [compound 18]
- reduction in viral load vs DMSO controls (AD38 cells; test concentration 3 μM): ++
- reduction in viral load vs DMSO controls (AD38 cells; test concentration 10 μM): ++
- % Capsid formation at 24 h (10 μM) (HBV Cp): 71%

SMILES: CCc1cc(Nc2ccc(C)cc2)nc(N2CCN(S(=O)(=O)c3ccc(OC)cc3)CC2)n1 [compound 29]
- reduction in viral load vs DMSO controls (AD38 cells; test concentration 1 μM): ++
- reduction in viral load vs DMSO controls (AD38 cells; test concentration 3 μM): ++
- reduction in viral load vs DMSO controls (AD38 cells; test concentration 10 μM): ++
- % Capsid formation at 24 h (10 μM) (HBV Cp): 94%

SMILES: Cc1ccc(Nc2cc(C)nc(N3CCN(S(=O)(=O)c4cccc(C)c4)CC3)n2)cc1 [compound 7]
- reduction in viral load vs DMSO controls (AD38 cells; test concentration 1 μM): +
- reduction in viral load vs DMSO controls (AD38 cells; test concentration 3 μM): ++
- reduction in viral load vs DMSO controls (AD38 cells; test concentration 10 μM): ++
- % Capsid formation at 24 h (10 μM) (HBV Cp): 79%

SMILES: COc1cccc(S(=O)(=O)N2CCN(c3nc(C)cc(Nc4ccc(F)cc4)n3)CC2)c1 [compound 44]
- % Capsid formation at 24 h (10 μM) (HBV Cp): 92%

SMILES: COc1ccc(S(=O)(=O)N2CCN(c3nc(Nc4ccc(C)cc4)cc(C(C)C)n3)CC2)cc1 [compound 30]
- % Capsid formation at 24 h (10 μM) (HBV Cp): 87%

SMILES: COc1cccc(S(=O)(=O)N2CCN(c3nc(C)cc(Nc4ccc(C)cc4)n3)CC2)c1 [compound 16]
- reduction in viral load vs DMSO controls (AD38 cells; test concentration 1 μM): ++
- reduction in viral load vs DMSO controls (AD38 cells; test concentration 3 μM): ++
- reduction in viral load vs DMSO controls (AD38 cells; test concentration 10 μM): ++
- % Capsid formation at 24 h (10 μM) (HBV Cp): 95%

SMILES: Cc1ccc(Nc2cc(C)nc(N3CCN(S(=O)(=O)c4ccccc4F)CC3)n2)cc1 [compound 14]
- % Capsid formation at 24 h (10 μM) (HBV Cp): 67%

SMILES: CCc1ccc(S(=O)(=O)N2CCN(c3nc(C)cc(Nc4ccc(C)cc4)n3)CC2)cc1 [compound 5]
- reduction in viral load vs DMSO controls (AD38 cells; test concentration 3 μM): ++
- reduction in viral load vs DMSO controls (AD38 cells; test concentration 10 μM): ++
- % Capsid formation at 24 h (10 μM) (HBV Cp): 91%

SMILES: CCc1ccc(Nc2cc(C)nc(N3CCN(S(=O)(=O)c4ccc(OC)cc4)CC3)n2)cc1 [compound 35]
- reduction in viral load vs DMSO controls (AD38 cells; test concentration 1 μM): ++
- reduction in viral load vs DMSO controls (AD38 cells; test concentration 3 μM): ++
- reduction in viral load vs DMSO controls (AD38 cells; test concentration 10 μM): ++
- % Capsid formation at 24 h (10 μM) (HBV Cp): 81%

SMILES: Cc1ccc(Nc2cc(C)nc(N3CCN(S(=O)(=O)c4ccc(Cl)cc4)CC3)n2)cc1 [compound 3]
- reduction in viral load vs DMSO controls (AD38 cells; test concentration 1 μM): ++
- reduction in viral load vs DMSO controls (AD38 cells; test concentration 3 μM): ++
- reduction in viral load vs DMSO controls (AD38 cells; test concentration 10 μM): ++
- % Capsid formation at 24 h (10 μM) (HBV Cp): 94%

SMILES: Cc1ccc(Nc2cc(C)nc(N3CCN(S(=O)(=O)c4ccc(F)cc4)CC3)n2)cc1 [compound 13]
- % Capsid formation at 24 h (10 μM) (HBV Cp): 60%

SMILES: COc1ccc(S(=O)(=O)N2CCN(c3nc(C)cc(Nc4ccc(Br)cc4)n3)CC2)cc1 [compound 34]
- reduction in viral load vs DMSO controls (AD38 cells; test concentration 1 μM): ++
- reduction in viral load vs DMSO controls (AD38 cells; test concentration 3 μM): ++
- reduction in viral load vs DMSO controls (AD38 cells; test concentration 10 μM): ++
- % Capsid formation at 24 h (10 μM) (HBV Cp): 96%

SMILES: Cc1ccc(Nc2cc(C)nc(N3CCN(S(=O)(=O)c4ccccc4)CC3)n2)cc1 [compound 12]
- % Capsid formation at 24 h (10 μM) (HBV Cp): 73%

SMILES: Cc1ccc(Nc2cc(C)nc(N3CCN(S(=O)(=O)c4ccc(O)cc4)CC3)n2)cc1 [compound 4]
- % Capsid formation at 24 h (10 μM) (HBV Cp): 99%

SMILES: COc1ccc(S(=O)(=O)N2CCN(c3nc(C)cc(Nc4ccc(C(F)(F)F)cc4)n3)CC2)cc1 [compound 40]
- reduction in viral load vs DMSO controls (AD38 cells; test concentration 1 μM): ++
- reduction in viral load vs DMSO controls (AD38 cells; test concentration 3 μM): ++
- reduction in viral load vs DMSO controls (AD38 cells; test concentration 10 μM): ++
- % Capsid formation at 24 h (10 μM) (HBV Cp): 91%

SMILES: CC(C)c1cc(Nc2ccc(F)cc2)nc(N2CCN(S(=O)(=O)c3ccccc3)CC2)n1 [compound 21]
- % Capsid formation at 24 h (10 μM) (HBV Cp): 71%

SMILES: Cc1ccc(Nc2cc(C)nc(N3CCN(S(=O)(=O)c4ccc(C)cc4)CC3)n2)cc1 [compound 1]
- reduction in viral load vs DMSO controls (AD38 cells; test concentration 3 μM): ++
- reduction in viral load vs DMSO controls (AD38 cells; test concentration 10 μM): ++
- % Capsid formation at 24 h (10 μM) (HBV Cp): 95%

SMILES: CCCCc1ccc(S(=O)(=O)N2CCN(c3nc(C)cc(Nc4ccc(C)cc4)n3)CC2)cc1 [compound 20]
- % Capsid formation at 24 h (10 μM) (HBV Cp): 90%

SMILES: Cc1ccc(S(=O)(=O)N2CCN(c3nc(Nc4ccc(F)cc4)cc(C(C)C)n3)CC2)cc1 [compound 22]
- % Capsid formation at 24 h (10 μM) (HBV Cp): 80%

SMILES: CCCCOc1ccc(S(=O)(=O)N2CCN(c3nc(C)cc(Nc4ccc(C)cc4)n3)CC2)cc1 [compound 9]
- % Capsid formation at 24 h (10 μM) (HBV Cp): 93%

SMILES: COc1ccc(S(=O)(=O)N2CCN(c3nc(C)cc(Nc4ccc(Cl)cc4)n3)CC2)cc1 [compound 37]
- reduction in viral load vs DMSO controls (AD38 cells; test concentration 1 μM): ++
- reduction in viral load vs DMSO controls (AD38 cells; test concentration 3 μM): ++
- reduction in viral load vs DMSO controls (AD38 cells; test concentration 10 μM): ++
- % Capsid formation at 24 h (10 μM) (HBV Cp): 93%

SMILES: COc1ccc(S(=O)(=O)N2CCN(c3nc(C)cc(Nc4ccc(C)cc4)n3)CC2)cc1 [compound 11]
- reduction in viral load vs DMSO controls (AD38 cells; test concentration 3 μM): ++
- reduction in viral load vs DMSO controls (AD38 cells; test concentration 10 μM): ++
- % Capsid formation at 24 h (10 μM) (HBV Cp): 89%

SMILES: Cc1ccc(Nc2cc(C)nc(N3CCN(S(=O)(=O)c4ccc(OC(F)(F)F)cc4)CC3)n2)cc1 [compound 2]
- % Capsid formation at 24 h (10 μM) (HBV Cp): 83%

SMILES: Cc1ccc(Nc2cc(C)nc(N3CCN(S(=O)(=O)c4ccc(N(C)C)cc4)CC3)n2)cc1 [compound 23]
- reduction in viral load vs DMSO controls (AD38 cells; test concentration 1 μM): +
- reduction in viral load vs DMSO controls (AD38 cells; test concentration 3 μM): ++
- reduction in viral load vs DMSO controls (AD38 cells; test concentration 10 μM): ++
- % Capsid formation at 24 h (10 μM) (HBV Cp): 88%

SMILES: CCCc1cc(Nc2ccc(C)cc2)nc(N2CCN(S(=O)(=O)c3ccc(OC)cc3)CC2)n1 [compound 32]
- reduction in viral load vs DMSO controls (AD38 cells; test concentration 1 μM): ++
- reduction in viral load vs DMSO controls (AD38 cells; test concentration 3 μM): ++
- reduction in viral load vs DMSO controls (AD38 cells; test concentration 10 μM): ++
- % Capsid formation at 24 h (10 μM) (HBV Cp): 69%

SMILES: Cc1ccc(Nc2cc(C)nc(N3CCN(S(=O)(=O)c4ccc5ccccc5c4)CC3)n2)cc1 [compound 17]
- % Capsid formation at 24 h (10 μM) (HBV Cp): 70%

SMILES: COc1ccc(S(=O)(=O)N2CCN(c3nc(C)cc(Nc4ccc(C#N)cc4)n3)CC2)cc1 [compound 42]
- reduction in viral load vs DMSO controls (AD38 cells; test concentration 10 μM): ++
- % Capsid formation at 24 h (10 μM) (HBV Cp): 69%

SMILES: COc1ccc(S(=O)(=O)N2CCN(c3nc(C)cc(Nc4ccc(F)cc4)n3)CC2)cc1 [compound 38]
- % Capsid formation at 24 h (10 μM) (HBV Cp): 75%

SMILES: COc1ccc(Nc2cc(C)nc(N3CCN(S(=O)(=O)c4ccc(OC)c(OC)c4)CC3)n2)cc1 [compound 45]
- % Capsid formation at 24 h (10 μM) (HBV Cp): 87%
